Measured values as given in ChEMBL document CHEMBL5210121, “Affinity On-target Cellular Literature for EUbOPEN Chemogenomics Library wave 3” (2023).
Each block holds one compound with its values, some of them ahead of it.

Columns and labels:
[1] = target: Mas-related G-protein coupled receptor member X2 (Homo sapiens, UniProt Q96LB1); test: Affinity On-target Cellular interaction (PRESTO-Tango concentration response assay (by the NIMH-PDSP)) EUB0000345a MRGPRX2; parameters: mode of action Negative control for (R)-ZINC 3573, recommended concentration 1 uM
[2] = target: D(4) dopamine receptor (Homo sapiens, UniProt P21917); test: Affinity On-target Cellular interaction (Fluorometric Imaging Plate Reader (FLIPR) Assay (agonist activity at human D4.4 receptor in HEK293 cells coexpressing G-alpha-qo5)) EUB0000332a DRD4; format: cell-based; parameters: mode of action Negative control for ABT-724, recommended concentration 100 nM
[3] = target: Cystic fibrosis transmembrane conductance regulator (Homo sapiens, UniProt P13569, F508DEL); test: Affinity On-target Cellular interaction (CFTR Restoration Trans-Epithelial Current Clamp (TECC) assay (in HBE cells from F508del CF patients)) EUB0000264b CFTR; format: cell-based; parameters: mode of action Negative control for A-1596586, recommended concentration 1 uM
[4] = target: Endothelin receptor type B (Homo sapiens, UniProt P24530); test: Affinity On-target Cellular interaction (Cellular functional assay (antagonist effect, Eurofins)) EUB0000339a EDNRB; parameters: mode of action Negative control for A-192621, recommended concentration 100 nM
[5] = target: Activin receptor type-1B (Homo sapiens, UniProt P36896); test: Affinity On-target Cellular interaction (NanoBRET assay (HEK293T cells)) EUB0000710a ACVR1B
[6] = target: TGF-beta receptor type-1 (Homo sapiens, UniProt P36897); test: Affinity On-target Cellular interaction (NanoBRET assay (HEK293T cells)) EUB0000710a TGFBR1
[7] = target: Inhibitor of nuclear factor kappa-B kinase subunit epsilon (Homo sapiens, UniProt Q14164)
[8] = target: Serine/threonine-protein kinase TBK1 (Homo sapiens, UniProt Q9UHD2)
[9] = target: Proteinase-activated receptor 1 (Homo sapiens, UniProt P25116); test: Affinity On-target Cellular interaction (Functional cellular assay in HEK cells expressing F2R) EUB0000333a F2R; format: cell-based; parameters: mode of action Negative control for BAY-386, recommended concentration 100 nM
[10] = target: Lutropin-choriogonadotropic hormone receptor (Homo sapiens, UniProt P22888); test: Affinity On-target Cellular interaction (Cell-based assay (LH Antagonism)) EUB0000340a LHCGR; parameters: mode of action Negative control for BAY-899, recommended concentration 1 uM
[11] = target: Bifunctional epoxide hydrolase 2 (Homo sapiens, UniProt P34913); test: Affinity On-target Cellular interaction (ELISA (inhibition of sEH in human Hep G2 cells)) EUB0000542a EPHX2; format: cell-based; parameters: mode of action Inhibitor, recommended concentration 100 nM
[12] = target: T1, Mitogen-activated protein kinase 1 (Homo sapiens, UniProt P28482); test: Affinity On-target Cellular interaction (Cellular assay (inhibition of RSK phosphorylation, A375SM cells)) EUB0000700a MAPK1
[13] = target: T1, Mitogen-activated protein kinase 1
[14] = target: Serine/threonine-protein kinase PLK1 (Homo sapiens, UniProt P53350); test: Affinity On-target Cellular interaction (ELISA (PLK1 phosphorylation of Ser15-p53 in HeLa cells)) EUB0000698a PLK1; format: cell-based; parameters: mode of action Inhibitor, recommended concentration 100 nM
[15] = target: Leucine-rich repeat serine/threonine-protein kinase 2 (Homo sapiens, UniProt Q5S007); test: Affinity On-target Cellular interaction (NanoBRET assay (HEK293T cells)) EUB0000706a LRRK2
[16] = Affinity On-target Cellular interaction (Cellular human mast cell degranulation assay) EUB0000714a SYK
[17] = target: T2, Dual specificity protein kinase CLK1 (Homo sapiens, UniProt P49759); test: Affinity On-target Cellular interaction (NanoBRET assay (HEK293T cells)) EUB0000705a CLK1
[18] = target: T3, Dual specificity protein kinase CLK4 (Homo sapiens, UniProt Q9HAZ1); test: Affinity On-target Cellular interaction (NanoBRET assay (HEK293T cells)) EUB0000705a CLK4
[19] = target: Dual specificity protein kinase CLK2 (Homo sapiens, UniProt P49760); test: Affinity On-target Cellular interaction (NanoBRET assay (HEK293T cells)) EUB0000705a CLK2
[20] = target: T3, Dual specificity protein kinase CLK4; test: Affinity On-target Cellular interaction (NanoBRET assay (HEK293T cells)) EUB0000321b CLK4; parameters: mode of action Inhibitor, recommended concentration 100 nM
[21] = target: T2, Dual specificity protein kinase CLK1; test: Affinity On-target Cellular interaction (NanoBRET assay (HEK293T cells)) EUB0000321b CLK1; parameters: mode of action Inhibitor, recommended concentration 100 nM
[22] = target: G-protein coupled receptor 52 (Homo sapiens, UniProt Q9Y2T5)
Sequence of G-protein coupled receptor 52 (Q9Y2T5 whole entry): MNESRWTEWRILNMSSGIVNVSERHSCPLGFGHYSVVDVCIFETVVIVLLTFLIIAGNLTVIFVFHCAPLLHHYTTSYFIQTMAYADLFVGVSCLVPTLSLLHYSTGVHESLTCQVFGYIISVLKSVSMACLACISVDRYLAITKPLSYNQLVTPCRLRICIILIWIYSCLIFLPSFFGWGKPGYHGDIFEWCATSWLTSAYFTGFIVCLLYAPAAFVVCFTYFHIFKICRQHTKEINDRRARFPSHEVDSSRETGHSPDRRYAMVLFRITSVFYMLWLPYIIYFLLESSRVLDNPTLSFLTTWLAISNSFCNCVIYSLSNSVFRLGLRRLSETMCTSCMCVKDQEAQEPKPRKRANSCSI

T1 sequence (P28482 whole entry): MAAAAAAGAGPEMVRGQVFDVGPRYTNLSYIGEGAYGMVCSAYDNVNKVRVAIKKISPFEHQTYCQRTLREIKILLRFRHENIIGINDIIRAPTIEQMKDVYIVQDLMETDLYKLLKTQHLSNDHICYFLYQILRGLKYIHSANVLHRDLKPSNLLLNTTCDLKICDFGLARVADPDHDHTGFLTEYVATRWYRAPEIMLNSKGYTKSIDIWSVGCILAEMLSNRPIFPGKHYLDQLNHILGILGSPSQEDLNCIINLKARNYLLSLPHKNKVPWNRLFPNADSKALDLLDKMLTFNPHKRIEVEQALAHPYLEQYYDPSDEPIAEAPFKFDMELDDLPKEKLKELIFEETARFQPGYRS
T2 sequence (P49759 whole entry): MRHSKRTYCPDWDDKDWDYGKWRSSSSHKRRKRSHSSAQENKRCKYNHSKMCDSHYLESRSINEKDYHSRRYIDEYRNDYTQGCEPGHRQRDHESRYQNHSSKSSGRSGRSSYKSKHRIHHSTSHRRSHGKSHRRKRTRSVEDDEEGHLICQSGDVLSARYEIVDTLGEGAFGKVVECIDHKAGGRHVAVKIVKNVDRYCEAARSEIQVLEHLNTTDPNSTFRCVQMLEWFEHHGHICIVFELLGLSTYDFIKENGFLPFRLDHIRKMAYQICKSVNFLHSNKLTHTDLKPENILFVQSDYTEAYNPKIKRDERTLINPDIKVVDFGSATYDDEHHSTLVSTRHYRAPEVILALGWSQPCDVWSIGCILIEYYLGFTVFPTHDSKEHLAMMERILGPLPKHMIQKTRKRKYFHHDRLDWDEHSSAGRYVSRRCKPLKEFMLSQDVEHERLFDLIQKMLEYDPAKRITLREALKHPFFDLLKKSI
T3 sequence (Q9HAZ1 whole entry): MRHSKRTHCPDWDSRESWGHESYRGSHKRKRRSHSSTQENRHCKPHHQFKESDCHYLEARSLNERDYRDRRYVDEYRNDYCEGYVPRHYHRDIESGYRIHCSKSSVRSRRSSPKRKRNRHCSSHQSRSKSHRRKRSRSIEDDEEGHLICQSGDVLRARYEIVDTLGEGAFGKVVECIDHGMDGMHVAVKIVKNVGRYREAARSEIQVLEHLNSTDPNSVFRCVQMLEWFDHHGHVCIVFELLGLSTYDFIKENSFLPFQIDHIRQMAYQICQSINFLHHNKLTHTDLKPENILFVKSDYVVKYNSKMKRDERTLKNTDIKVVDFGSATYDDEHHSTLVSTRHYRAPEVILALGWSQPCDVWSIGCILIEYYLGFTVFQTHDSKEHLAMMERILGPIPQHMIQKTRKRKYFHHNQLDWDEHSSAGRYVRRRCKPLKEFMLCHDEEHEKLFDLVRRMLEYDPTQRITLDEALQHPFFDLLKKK
Sequence of Endothelin receptor type B (P24530 whole entry): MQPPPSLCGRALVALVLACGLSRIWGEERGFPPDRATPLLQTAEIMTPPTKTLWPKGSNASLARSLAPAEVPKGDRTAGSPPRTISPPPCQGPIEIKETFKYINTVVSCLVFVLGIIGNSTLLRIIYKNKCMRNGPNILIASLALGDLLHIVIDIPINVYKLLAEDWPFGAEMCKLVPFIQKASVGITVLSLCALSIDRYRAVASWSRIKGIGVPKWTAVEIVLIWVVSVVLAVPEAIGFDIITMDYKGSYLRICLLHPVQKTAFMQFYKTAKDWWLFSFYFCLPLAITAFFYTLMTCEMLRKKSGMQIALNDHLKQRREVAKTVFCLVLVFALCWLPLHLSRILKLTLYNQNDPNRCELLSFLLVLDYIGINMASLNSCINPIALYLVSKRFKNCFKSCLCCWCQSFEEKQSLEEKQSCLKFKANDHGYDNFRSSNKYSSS
Sequence of Cystic fibrosis transmembrane conductance regulator (P13569 as listed by the source): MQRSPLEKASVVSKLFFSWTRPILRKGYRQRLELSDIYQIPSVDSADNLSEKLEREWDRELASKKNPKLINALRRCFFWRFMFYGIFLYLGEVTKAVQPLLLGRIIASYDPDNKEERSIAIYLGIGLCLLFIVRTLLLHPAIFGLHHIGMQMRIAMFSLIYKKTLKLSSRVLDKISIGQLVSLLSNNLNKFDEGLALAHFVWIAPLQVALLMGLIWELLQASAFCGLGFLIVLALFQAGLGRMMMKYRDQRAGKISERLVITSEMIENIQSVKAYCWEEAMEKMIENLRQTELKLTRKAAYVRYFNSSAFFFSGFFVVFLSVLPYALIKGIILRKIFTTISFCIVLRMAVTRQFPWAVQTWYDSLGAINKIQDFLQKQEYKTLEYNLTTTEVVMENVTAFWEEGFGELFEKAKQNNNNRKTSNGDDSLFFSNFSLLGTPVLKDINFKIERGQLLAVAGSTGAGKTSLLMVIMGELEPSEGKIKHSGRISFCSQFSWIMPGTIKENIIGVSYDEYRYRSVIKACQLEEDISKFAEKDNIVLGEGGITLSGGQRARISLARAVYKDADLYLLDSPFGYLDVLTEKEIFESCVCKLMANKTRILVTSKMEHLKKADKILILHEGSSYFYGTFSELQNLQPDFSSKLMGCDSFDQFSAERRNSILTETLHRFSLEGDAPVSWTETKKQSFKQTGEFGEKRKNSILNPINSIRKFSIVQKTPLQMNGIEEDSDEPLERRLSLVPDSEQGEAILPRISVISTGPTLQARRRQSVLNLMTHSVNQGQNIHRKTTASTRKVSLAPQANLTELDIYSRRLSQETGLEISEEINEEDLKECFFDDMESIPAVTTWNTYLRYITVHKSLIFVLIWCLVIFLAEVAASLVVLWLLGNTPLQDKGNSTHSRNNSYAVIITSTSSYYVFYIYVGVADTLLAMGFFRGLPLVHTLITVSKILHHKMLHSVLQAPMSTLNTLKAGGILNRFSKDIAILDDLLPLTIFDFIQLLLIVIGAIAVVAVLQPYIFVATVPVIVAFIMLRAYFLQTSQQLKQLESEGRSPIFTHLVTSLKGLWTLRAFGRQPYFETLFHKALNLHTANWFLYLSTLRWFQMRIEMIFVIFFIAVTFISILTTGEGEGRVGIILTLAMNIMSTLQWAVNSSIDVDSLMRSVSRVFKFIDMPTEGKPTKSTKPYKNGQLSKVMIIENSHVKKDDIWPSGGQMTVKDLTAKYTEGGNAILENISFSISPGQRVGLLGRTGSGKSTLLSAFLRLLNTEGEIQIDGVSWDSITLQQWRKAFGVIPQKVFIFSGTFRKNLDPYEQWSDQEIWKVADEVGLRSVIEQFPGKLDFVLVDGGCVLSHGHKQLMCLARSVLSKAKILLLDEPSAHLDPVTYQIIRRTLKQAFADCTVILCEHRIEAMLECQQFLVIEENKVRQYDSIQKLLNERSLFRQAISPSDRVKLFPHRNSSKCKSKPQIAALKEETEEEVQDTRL
Sequence of Lutropin-choriogonadotropic hormone receptor (P22888 whole entry): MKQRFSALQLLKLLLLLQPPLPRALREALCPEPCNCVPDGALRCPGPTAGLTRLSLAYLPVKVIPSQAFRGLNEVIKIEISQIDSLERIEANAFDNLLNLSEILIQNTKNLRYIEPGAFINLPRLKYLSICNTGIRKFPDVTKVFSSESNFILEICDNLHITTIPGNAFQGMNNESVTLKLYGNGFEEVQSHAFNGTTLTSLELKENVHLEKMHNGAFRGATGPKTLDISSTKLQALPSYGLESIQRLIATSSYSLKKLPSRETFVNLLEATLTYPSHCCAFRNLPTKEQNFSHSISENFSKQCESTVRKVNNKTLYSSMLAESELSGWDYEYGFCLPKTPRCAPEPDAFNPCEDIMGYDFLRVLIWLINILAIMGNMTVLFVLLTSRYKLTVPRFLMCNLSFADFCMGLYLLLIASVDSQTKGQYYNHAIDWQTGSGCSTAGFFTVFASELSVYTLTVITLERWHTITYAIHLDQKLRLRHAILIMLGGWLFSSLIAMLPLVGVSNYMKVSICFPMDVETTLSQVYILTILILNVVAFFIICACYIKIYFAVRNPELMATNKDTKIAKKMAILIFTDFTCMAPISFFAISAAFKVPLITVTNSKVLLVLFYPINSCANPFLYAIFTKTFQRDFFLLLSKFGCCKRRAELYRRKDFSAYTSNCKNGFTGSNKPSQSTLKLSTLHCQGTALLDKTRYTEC
Sequence of Serine/threonine-protein kinase PLK1 (P53350 whole entry): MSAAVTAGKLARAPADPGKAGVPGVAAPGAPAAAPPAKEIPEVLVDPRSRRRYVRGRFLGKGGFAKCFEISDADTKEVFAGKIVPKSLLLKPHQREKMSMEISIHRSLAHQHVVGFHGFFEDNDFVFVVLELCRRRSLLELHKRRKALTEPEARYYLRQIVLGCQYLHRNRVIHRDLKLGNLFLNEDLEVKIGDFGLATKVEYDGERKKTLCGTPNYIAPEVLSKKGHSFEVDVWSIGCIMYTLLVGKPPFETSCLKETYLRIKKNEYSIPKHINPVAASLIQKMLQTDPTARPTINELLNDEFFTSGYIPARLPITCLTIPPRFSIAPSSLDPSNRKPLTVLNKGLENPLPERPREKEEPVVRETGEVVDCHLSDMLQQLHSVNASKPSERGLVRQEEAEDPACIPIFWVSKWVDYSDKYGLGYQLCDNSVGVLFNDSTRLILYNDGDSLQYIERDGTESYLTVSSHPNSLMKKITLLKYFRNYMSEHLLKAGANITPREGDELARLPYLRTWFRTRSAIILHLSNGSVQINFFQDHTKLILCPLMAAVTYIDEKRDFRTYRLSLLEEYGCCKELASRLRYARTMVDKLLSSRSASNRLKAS

EC50 [1]: > 100 µM
SMILES: CN(C)[C@H]1CCN(c2cc(-c3ccccc3)nc3ccnn23)C1 [(S)-ZINC-3573]

EC50 [2]: > 10 µM
SMILES: CSc1cccnc1N1CCN(Cc2nc3ccccc3[nH]2)CC1 [A-769]

EC50 [3]: > 3 µM
SMILES: COc1ccc2c(c1)O[C@H](c1ccc(OC)c(OC)c1)C[C@@H]2NC(=O)C1(c2ccc3c(c2)OC(F)(F)O3)CC1 [A-1596584]

IC50 [4]: > 10 µM
SMILES: CCCOc1ccc([C@@H]2[C@@H](C(=O)O)[C@H](c3ccc4c(c3)OCO4)CN2CC(=O)Nc2c(CC)cccc2CC)cc1 [A-1806262]

IC50 [5]: > 10 µM | IC50 [6]: > 10 µM
SMILES: Cc1cnc(-c2cc(Cl)ccc2F)cc1-n1c(=O)n(CC(N)=O)c2ccccc21 [Al11]

IC50 [7]: > 27 µM | IC50 [8]: > 27 µM
SMILES: CN(C)c1ncnc(-c2ccc3nc(Nc4cc(CN5CCN(C(=O)CC(F)(F)F)CC5)ccn4)[nH]c3c2)c1Cl [BAY-440]

IC50 [9]: > 10 µM
SMILES: Cc1noc([C@H]2C[C@@H](c3ccc(C(F)(F)F)cc3)CN(C(=O)N3CCS(=O)(=O)C3)C2)n1 [BAY-448]

IC50 [10]: > 16 µM
SMILES: O=C(Nc1ccc(Oc2ccc(F)cc2)cc1)N1CCc2ncccc2[C@H]1c1ccc(F)cc1 [BAY-897]

IC50 [11]: < 0.001 µM
SMILES: CCOCCn1cc(C(=O)Nc2ccc(-n3nc(-c4cccnc4)cc3C(F)(F)F)cn2)ccc1=O [BI 1935]

IC50 [12]: > 10 µM
SMILES: C[C@H](NC(=O)Nc1cc2[nH]ncc2c(CO)n1)c1ccccn1 [ERKi-NC]

IC50 [13]: 0.85 µM
SMILES: C[C@@H](NC(=O)Nc1cc2[nH]ncc2c(CO)n1)c1ccccc1 [ERKi]

IC50 [14]: 0.14 µM
SMILES: COc1cc2ncn(-c3cc(OCc4ccccc4C(F)(F)F)c(C(N)=O)s3)c2cc1OC [GW843682X]

EC50 [15]: 0.421 µM
SMILES: C[C@@H]1CN(c2cc(-c3nn(C)c4ccc(OC5(C)CC5)cc34)ncn2)C[C@H](C)O1 [MLi-2-NC]

IC50 [16]: 0.038 µM
SMILES: Cc1cc(Nc2nccc(C)n2)cc(-c2cnc([C@@]3(O)CC[C@H](C(=O)O)C(C)(C)C3)s2)c1 [MRL-SYKi]

IC50 [17]: > 10 µM | IC50 [18]: > 10 µM | IC50 [19]: > 10 µM
SMILES: CN1CCN(C(=O)C(C)(C)c2ccc(C(=O)Nc3cn4cc(-c5cc(C(C)(C)C)cc(C(C)(C)C)c5)ccc4n3)cc2)CC1 [T3-CLK-N]

IC50 [20]: > 0.002 µM | IC50 [21]: 0.004 µM
SMILES: CN1CCN(C(=O)C(C)(C)c2ccc(C(=O)Nc3cn4cc(-c5ccncc5)ccc4n3)cc2)CC1 [T3-CLK]

EC50 [22]: > 1 µM
SMILES: Cc1nc(Cc2cccc(C(F)(F)F)c2)sc1-c1ccc(C(N)=O)nc1 [TP-024n]
